System: PDC 899932-113-R3-J6 complex spheroid viability
Test: Anticancer human tumor 899932-113-R3-J6-PDC patient-derived melanoma cell line growth inhibition [RAS]
Conditions: for IC50: curve of first compound; for viability, T/C: stronger effect = lower value
In short: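 Multi-cell-type spheroids: tumor cells plus HUVEC endothelial cells and mesenchymal stem cells. RAS-pathway inhibitors were combined with targeted agents, each dosed in half-log steps down from clinical Cmax, or from 10 microM when Cmax was unknown.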

[1] = second compound 0.000949 µM, first compound 0.000949 µM
[2] = second compound 0.000949 µM, first compound 0.003 µM
[3] = second compound 0.000949 µM, first compound 0.00949 µM
[4] = second compound 0.000949 µM, first compound 0.03 µM
[5] = second compound 0.000949 µM, first compound 0.0949 µM
[6] = second compound 0.000949 µM, first compound 0.3 µM
[7] = second compound 0.003 µM, first compound 0.000949 µM
[8] = second compound 0.003 µM, first compound 0.003 µM
[9] = second compound 0.003 µM, first compound 0.00949 µM
[10] = second compound 0.003 µM, first compound 0.03 µM
[11] = second compound 0.003 µM, first compound 0.0949 µM
[12] = second compound 0.003 µM, first compound 0.3 µM
[13] = second compound 0.00949 µM, first compound 0.000949 µM
[14] = second compound 0.00949 µM, first compound 0.003 µM
[15] = second compound 0.00949 µM, first compound 0.00949 µM
[16] = second compound 0.00949 µM, first compound 0.03 µM
[17] = second compound 0.00949 µM, first compound 0.0949 µM
[18] = second compound 0.00949 µM, first compound 0.3 µM
[19] = second compound 0.03 µM, first compound 0.000949 µM
[20] = second compound 0.03 µM, first compound 0.003 µM
[21] = second compound 0.03 µM, first compound 0.00949 µM
[22] = second compound 0.03 µM, first compound 0.03 µM
[23] = second compound 0.03 µM, first compound 0.0949 µM
[24] = second compound 0.03 µM, first compound 0.3 µM
[25] = second compound 0.0949 µM, first compound 0.000949 µM
[26] = second compound 0.0949 µM, first compound 0.003 µM
[27] = second compound 0.0949 µM, first compound 0.00949 µM
[28] = second compound 0.0949 µM, first compound 0.03 µM
[29] = second compound 0.0949 µM, first compound 0.0949 µM
[30] = second compound 0.0949 µM, first compound 0.3 µM
[31] = second compound 0.3 µM, first compound 0.000949 µM
[32] = second compound 0.3 µM, first compound 0.003 µM
[33] = second compound 0.3 µM, first compound 0.00949 µM
[34] = second compound 0.3 µM, first compound 0.03 µM
[35] = second compound 0.3 µM, first compound 0.0949 µM
[36] = second compound 0.3 µM, first compound 0.3 µM
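Throughout, for viability, T/C: spheroids exposed to agents for seven days before readout; 100% = DMSO vehicle control wells.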

C=CC(=O)N1CCN(c2nc(OCC3CCCN3C)nc3c(F)c(-c4nc(N)cc(C)c4C(F)(F)F)c(Cl)cc23)C(C)C1 (stereo unspecified) + CCn1c(-c2cccnc2C(C)OC)c2c3cc(ccc31)N1CCOC(CC(NC(=O)C(C(C)C)N(C)C(=O)C3(F)CCN(C(=O)C#CC(C)(C)N(C)C)CC3)C(=O)N3CCCC(N3)C(=O)OCC(C)(C)C2)C1
IC50 (second compound 0.000949 µM): > 1000 nM
IC50 (second compound 0.003 µM): > 1000 nM
IC50 (second compound 0.00949 µM): > 1000 nM
IC50 (second compound 0.03 µM): > 1000 nM
IC50 (second compound 0.0949 µM): > 1000 nM
IC50 (second compound 0.3 µM): > 1000 nM
viability, T/C (second compound 0.000949 µM, first compound 0.00316 µM): 113%
viability, T/C (second compound 0.000949 µM, first compound 0.01 µM): 101%
viability, T/C (second compound 0.000949 µM, first compound 0.0316 µM): 118%
viability, T/C (second compound 0.000949 µM, first compound 0.1 µM): 106%
viability, T/C (second compound 0.000949 µM, first compound 0.316 µM): 108%
viability, T/C (second compound 0.000949 µM, first compound 1 µM): 105%
viability, T/C (second compound 0.003 µM, first compound 0.00316 µM): 107%
viability, T/C (second compound 0.003 µM, first compound 0.01 µM): 118%
viability, T/C (second compound 0.003 µM, first compound 0.0316 µM): 105%
viability, T/C (second compound 0.003 µM, first compound 0.1 µM): 108%
viability, T/C (second compound 0.003 µM, first compound 0.316 µM): 108%
viability, T/C (second compound 0.003 µM, first compound 1 µM): 104%
viability, T/C (second compound 0.00949 µM, first compound 0.00316 µM): 110%
viability, T/C (second compound 0.00949 µM, first compound 0.01 µM): 107%
viability, T/C (second compound 0.00949 µM, first compound 0.0316 µM): 102%
viability, T/C (second compound 0.00949 µM, first compound 0.1 µM): 107%
viability, T/C (second compound 0.00949 µM, first compound 0.316 µM): 112%
viability, T/C (second compound 0.00949 µM, first compound 1 µM): 106%
viability, T/C (second compound 0.03 µM, first compound 0.00316 µM): 106%
viability, T/C (second compound 0.03 µM, first compound 0.01 µM): 97%
viability, T/C (second compound 0.03 µM, first compound 0.0316 µM): 110%
viability, T/C (second compound 0.03 µM, first compound 0.1 µM): 110%
viability, T/C (second compound 0.03 µM, first compound 0.316 µM): 114%
viability, T/C (second compound 0.03 µM, first compound 1 µM): 104%
viability, T/C (second compound 0.0949 µM, first compound 0.00316 µM): 101%
viability, T/C (second compound 0.0949 µM, first compound 0.01 µM): 102%
viability, T/C (second compound 0.0949 µM, first compound 0.0316 µM): 96%
viability, T/C (second compound 0.0949 µM, first compound 0.1 µM): 101%
viability, T/C (second compound 0.0949 µM, first compound 0.316 µM): 95.2%
viability, T/C (second compound 0.0949 µM, first compound 1 µM): 92.8%
viability, T/C (second compound 0.3 µM, first compound 0.00316 µM): 91.2%
viability, T/C (second compound 0.3 µM, first compound 0.01 µM): 87%
viability, T/C (second compound 0.3 µM, first compound 0.0316 µM): 92.1%
viability, T/C (second compound 0.3 µM, first compound 0.1 µM): 87.9%
viability, T/C (second compound 0.3 µM, first compound 0.316 µM): 84.9%
viability, T/C (second compound 0.3 µM, first compound 1 µM): 90.9%

CC1(C)CCC(Nc2ncc(C(F)(F)F)c(-c3c[nH]c4c(P(C)(C)=O)c(C#N)ccc34)n2)CN1 (stereo unspecified) + CCn1c(-c2cccnc2C(C)OC)c2c3cc(ccc31)N1CCOC(CC(NC(=O)C(C(C)C)N(C)C(=O)C3(F)CCN(C(=O)C#CC(C)(C)N(C)C)CC3)C(=O)N3CCCC(N3)C(=O)OCC(C)(C)C2)C1
IC50 (second compound 0.000949 µM): 25.9 nM
IC50 (second compound 0.003 µM): 20.1 nM
IC50 (second compound 0.00949 µM): 21.6 nM
IC50 (second compound 0.03 µM): 26.8 nM
IC50 (second compound 0.0949 µM): 22.5 nM
IC50 (second compound 0.3 µM): 18.8 nM
viability, T/C [1]: 105%
viability, T/C [2]: 75.8%
viability, T/C [3]: 62.9%
viability, T/C [4]: 52.4%
viability, T/C [5]: 34%
viability, T/C [6]: 15.1%
viability, T/C [7]: 112%
viability, T/C [8]: 78.6%
viability, T/C [9]: 61.3%
viability, T/C [10]: 43.4%
viability, T/C [11]: 37.8%
viability, T/C [12]: 15.5%
viability, T/C [13]: 98.1%
viability, T/C [14]: 86.6%
viability, T/C [15]: 61.9%
viability, T/C [16]: 41%
viability, T/C [17]: 34.4%
viability, T/C [18]: 15%
viability, T/C [19]: 104%
viability, T/C [20]: 88.2%
viability, T/C [21]: 64.7%
viability, T/C [22]: 46.5%
viability, T/C [23]: 36.2%
viability, T/C [24]: 20.2%
viability, T/C [25]: 100%
viability, T/C [26]: 75.6%
viability, T/C [27]: 59.8%
viability, T/C [28]: 47.4%
viability, T/C [29]: 35.6%
viability, T/C [30]: 20.6%
viability, T/C [31]: 79.3%
viability, T/C [32]: 71.8%
viability, T/C [33]: 57.1%
viability, T/C [34]: 43.5%
viability, T/C [35]: 37.4%
viability, T/C [36]: 28.4%

CCc1c2c(nc3ccc(O)cc13)-c1cc3c(c(=O)n1C2)COC(=O)[C@]3(O)CC + CCn1c(-c2cccnc2C(C)OC)c2c3cc(ccc31)N1CCOC(CC(NC(=O)C(C(C)C)N(C)C(=O)C3(F)CCN(C(=O)C#CC(C)(C)N(C)C)CC3)C(=O)N3CCCC(N3)C(=O)OCC(C)(C)C2)C1
IC50 (second compound 0.000949 µM): 19.5 nM
IC50 (second compound 0.003 µM): 19.9 nM
IC50 (second compound 0.00949 µM): 33.6 nM
IC50 (second compound 0.03 µM): 33.6 nM
IC50 (second compound 0.0949 µM): 15.7 nM
IC50 (second compound 0.3 µM): 17.2 nM
viability, T/C [1]: 93.4%
viability, T/C [2]: 72%
viability, T/C [3]: 56.4%
viability, T/C [4]: 46.1%
viability, T/C [5]: 39.9%
viability, T/C [6]: 32.3%
viability, T/C [7]: 95.3%
viability, T/C [8]: 69.1%
viability, T/C [9]: 57.8%
viability, T/C [10]: 46.7%
viability, T/C [11]: 42.2%
viability, T/C [12]: 31.1%
viability, T/C [13]: 93.8%
viability, T/C [14]: 78.3%
viability, T/C [15]: 61.4%
viability, T/C [16]: 53.6%
viability, T/C [17]: 39.1%
viability, T/C [18]: 30.8%
viability, T/C [19]: 93.7%
viability, T/C [20]: 83.6%
viability, T/C [21]: 59.1%
viability, T/C [22]: 52.7%
viability, T/C [23]: 41.9%
viability, T/C [24]: 29.7%
viability, T/C [25]: 88.3%
viability, T/C [26]: 66.8%
viability, T/C [27]: 54.1%
viability, T/C [28]: 45.4%
viability, T/C [29]: 39.1%
viability, T/C [30]: 31.5%
viability, T/C [31]: 71.1%
viability, T/C [32]: 66.5%
viability, T/C [33]: 52.8%
viability, T/C [34]: 42.9%
viability, T/C [35]: 42.8%
viability, T/C [36]: 32.2%

Source: PubChem BioAssay AID2060895 (Molecular Pharmacology Branch, DTP, NCI, 2025)
